# Results taken from paper PMC7966211, “Cooperativity of membrane-protein and protein–protein interactions control membrane remodeling by epsin 1 and affects clathrin-mediated endocytosis” (Cellular and Molecular Life Sciences: CMLS, 2020).
# T1: ENTH domain of epsin1 (ENTH^WT; Rat Epsin1 WT ENTH 1–164) (Rattus norvegicus, UniProt O88339)
# T1 construct: gene Epn1; ENTH domain residues 1-164, pGEX-6P-2, expressed in E. coli BL21(DE3), GST tag cleaved with PreScission protease
# T1 sequence (O88339 1-164): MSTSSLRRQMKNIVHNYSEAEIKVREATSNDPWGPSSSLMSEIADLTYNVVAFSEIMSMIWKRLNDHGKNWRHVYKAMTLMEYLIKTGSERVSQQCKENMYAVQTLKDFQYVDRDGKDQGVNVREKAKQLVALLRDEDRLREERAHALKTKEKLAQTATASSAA
# T2: ENTH domain of epsin1 (ENTH^WT; Rat Epsin1 WT ENTH 1–164) (Rattus norvegicus, UniProt O88339, R114A)
# T2 construct: gene Epn1; ENTH domain residues 1-164, pGEX-6P-2, expressed in E. coli BL21(DE3), GST tag cleaved with PreScission protease
# T2 sequence (O88339 1-164 R114A): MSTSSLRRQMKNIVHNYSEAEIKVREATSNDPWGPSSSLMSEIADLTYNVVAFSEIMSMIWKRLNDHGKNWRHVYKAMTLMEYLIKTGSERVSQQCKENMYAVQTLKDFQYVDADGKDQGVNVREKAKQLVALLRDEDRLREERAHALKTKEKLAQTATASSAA
# Assays:
# [1] = biological target: T1, ENTH domain of epsin1 (ENTH^WT; Rat Epsin1 WT ENTH 1–164); assay: LUV co-sedimentation with SDS-PAGE, electron microscopy, DLS: partial restoration of oligomerization and membrane remodeling; type: biochemical; conditions: 4 times molar excess of L-SOP to ENTH; PS-free PC/PE/PI(4,5)P2 (65:30:5) LUVs; effect on oligomerization, binding not measured directly
# [2] = biological target: T2, ENTH domain of epsin1 (ENTH^WT; Rat Epsin1 WT ENTH 1–164); assay: reflectometric interference spectroscopy (RIfS), Langmuir adsorption isotherm; type: binding; conditions: PI(4,5)P2 in supported POPC/PI(4,5)P2 (95:5) bilayer without PS; PBS pH 7.4; apparent membrane dissociation constant in protein concentration
# Excerpt: (§1) reflectometric interference spectroscopy (RIfS), Langmuir adsorption isotherm on ENTH domain of epsin1 (ENTH^WT; Rat Epsin1 WT ENTH 1–164)
# [3] = biological target: T1, ENTH domain of epsin1 (ENTH^WT; Rat Epsin1 WT ENTH 1–164); assay: as above; type: binding; conditions: PI(4,5)P2 in supported POPC/PI(4,5)P2 (95:5) bilayer without PS; PBS pH 7.4; apparent membrane dissociation constant in protein concentration
# Excerpt: as §1
# [4] = biological target: the molecule itself; assay: SDS-resistant oligomers on SDS-PAGE after liposome co-sedimentation; 20 µM protein with 2 mg/ml LUVs that contain PS (Folch + PI(4,5)P2, or PC/PE/PS/PI(4,5)P2 with 5-20% PS), 3 h 30 °C, HEPES buffer, 205,000 x g, pellet and supernatant on SDS-PAGE; self-association on membranes
# [5] = biological target: the molecule itself; assay: FRET or BRET; Atto488-labeled (donor) and Atto532-labeled (acceptor) ENTH domains, total 5 and 15 µM, in 2 mg/ml LUV suspension; LUVs PC/PE/PS/PI(4,5)P2 (45:30:20:5) compared with PS-free PC/PE/PI(4,5)P2 (65:30:5), on which the wild type gave reduced FRET; excitation 493 nm
molecule,measurement,setting,value
N[C@@H](COP(=O)(O)O)C(=O)O [L-SOP],"LUV co-sedimentation with SDS-PAGE, electron microscopy, DLS: partial restoratio",[1],presence of the PS headgroup was sufficient to partially restore oligomerization and membrane remodeling
"PI(4,5)P2",Kd,[2],2.9 ± 0.8 µM
same,Kd,[3],1 ± 0.2 µM
"Rat Epsin1 WT ENTH 1-164 (domain or fragment, UniProt O88339 1-164, looked up, Epsin 1, rat, ENTH (epsin N-terminal homology) domain, residues 1-164; Expressed from pGEX-6P-2; also called ENTH domain; ENTH^WT; source: E. coli BL21(DE3), purified (GSTrap, GST cleaved with PreScission Protease, anion exchange, SEC)) MSTSSLRRQMKNIVHNYSEAEIKVREATSNDPWGPSSSLMSEIADLTYNVVAFSEIMSMIWKRLNDHGKNWRHVYKAMTLMEYLIKTGSERVSQQCKENMYAVQTLKDFQYVDRDGKDQGVNVREKAKQLVALLRDEDRLREERAHALKTKEKLAQTATASSAA",binding result,[4],binds
"ENTH WT (C96A A155C), fluorescently labeled (domain or fragment, rat, UniProt O88339 1-164, looked up, Atto488 maleimide (donor population) or Atto532 maleimide (acceptor population) by cysteine modification, Epsin 1, rat, ENTH domain, residues 1-164, with C96A and A155C for labeling; Two populations of the same construct, one with Atto488 and one with Atto532, were mixed for FRET; also called ENTH-Atto-488; ENTH-Atto-532; source: E. coli BL21(DE3), purified (GSTrap, GST cleaved with PreScission Protease, anion exchange, SEC), then labeled) MSTSSLRRQMKNIVHNYSEAEIKVREATSNDPWGPSSSLMSEIADLTYNVVAFSEIMSMIWKRLNDHGKNWRHVYKAMTLMEYLIKTGSERVSQQAKENMYAVQTLKDFQYVDRDGKDQGVNVREKAKQLVALLRDEDRLREERAHALKTKEKLCQTATASSAA",binding result,[5],binds
